Source: patent publication US20230102554A1 (GB002, INC., priority 2019, published 2023)

What was measured:
[1] = target: T1, Human PDGFRα, cytoplasmic domain (GST-PDGFRα) (Homo sapiens, UniProt P16234); experiment: Human PDGFRα biochemical inhibition assay (off-chip Mobility Shift Assay)
T1 construct: made in house

[2] = target: T2, Human PDGFRβ, cytoplasmic domain (GST-PDGFRβ) (Homo sapiens, UniProt P09619); experiment: Human PDGFRβ biochemical inhibition assay (off-chip Mobility Shift Assay)
T2 construct: made in house
T2 sequence (P09619 with tags, fused parts or gaps): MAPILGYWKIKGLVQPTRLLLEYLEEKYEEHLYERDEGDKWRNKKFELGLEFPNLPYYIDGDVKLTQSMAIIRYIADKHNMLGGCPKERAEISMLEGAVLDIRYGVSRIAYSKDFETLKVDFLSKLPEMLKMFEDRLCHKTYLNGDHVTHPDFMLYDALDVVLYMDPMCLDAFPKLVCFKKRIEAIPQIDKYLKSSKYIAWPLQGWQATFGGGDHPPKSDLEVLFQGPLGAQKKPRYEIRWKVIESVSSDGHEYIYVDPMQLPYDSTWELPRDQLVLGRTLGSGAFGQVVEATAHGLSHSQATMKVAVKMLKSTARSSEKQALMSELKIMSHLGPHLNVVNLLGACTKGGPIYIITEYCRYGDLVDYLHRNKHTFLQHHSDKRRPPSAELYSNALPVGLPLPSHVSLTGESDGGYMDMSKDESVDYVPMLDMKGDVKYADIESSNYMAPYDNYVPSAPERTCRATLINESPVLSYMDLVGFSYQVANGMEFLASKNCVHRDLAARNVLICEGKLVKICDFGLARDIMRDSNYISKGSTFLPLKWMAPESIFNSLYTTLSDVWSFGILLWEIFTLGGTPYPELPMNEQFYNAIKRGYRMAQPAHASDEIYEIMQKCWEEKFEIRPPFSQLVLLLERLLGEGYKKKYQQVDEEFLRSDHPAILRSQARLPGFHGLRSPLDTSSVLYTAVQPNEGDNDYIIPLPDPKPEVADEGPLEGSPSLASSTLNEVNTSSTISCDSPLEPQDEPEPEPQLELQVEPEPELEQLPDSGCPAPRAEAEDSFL
Outline: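 GST-tagged cytoplasmic domain (aa 557-1106) from baculovirus was incubated 1 h at room temperature with compound, CSKtide, ATP at Km and Mg²⁺ in HEPES buffer, pH 7.5. Phosphorylated and unphosphorylated peptide were separated by off-chip mobility shift, and the product ratio P/(P+S) gave percent inhibition.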

T1 sequence (P16234 550-1089 T674I): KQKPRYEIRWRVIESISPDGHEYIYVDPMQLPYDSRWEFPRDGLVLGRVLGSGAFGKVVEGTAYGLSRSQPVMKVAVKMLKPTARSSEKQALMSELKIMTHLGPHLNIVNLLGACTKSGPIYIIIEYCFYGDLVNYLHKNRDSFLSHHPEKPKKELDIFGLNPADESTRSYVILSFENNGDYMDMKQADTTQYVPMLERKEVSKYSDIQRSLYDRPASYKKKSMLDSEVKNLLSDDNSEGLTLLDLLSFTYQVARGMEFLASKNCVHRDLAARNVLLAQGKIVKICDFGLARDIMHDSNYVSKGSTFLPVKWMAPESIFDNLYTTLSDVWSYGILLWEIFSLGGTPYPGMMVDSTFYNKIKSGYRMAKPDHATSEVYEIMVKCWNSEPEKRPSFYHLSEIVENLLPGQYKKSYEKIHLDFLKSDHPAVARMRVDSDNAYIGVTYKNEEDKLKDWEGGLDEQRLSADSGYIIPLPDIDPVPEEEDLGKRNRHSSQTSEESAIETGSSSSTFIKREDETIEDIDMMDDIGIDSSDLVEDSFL

| IC50 [1] [nM] | IC50 [2] [nM] | SMILES |
| --- | --- | --- |
| < 300 | < 300 | Cc1cc2ncc(N[C@@H](C)c3cc(NC(=O)c4ccc(C(F)(F)F)nc4)ccc3F)nc2s1 [Compound 615, (S)-N-(4-fluoro-3-(1-((6-methylthieno[2,3-b]pyrazin-3-yl)amino)ethyl)phenyl)-6-(trifluoromethyl)nicotinamide] |
| < 300 | < 300 | CCOC(=O)c1ccc(C(=O)Nc2cccc([C@H](C)Nc3cnc4cnn(C)c4n3)c2)cc1C [Compound 255, ethyl (S)-2-methyl-4-((3-(1-((1-methyl-1H-pyrazolo[3,4-b]pyrazin-6-yl)amino)ethyl)phenyl)carbamoyl)benzoate] |
| < 300 | ≥ 1000 | CCn1cc2ncc(N[C@@H](C)c3cc(NC(=O)Cc4ccc(C)cn4)c(F)cc3F)nc2n1 [Compound 724, (S)-N-(5-(1-((2-ethyl-2H-pyrazolo[3,4-b]pyrazin-6-yl)amino)ethyl)-2,4-difluorophenyl)-2-(5-methylpyridin-2-yl)acetamide] |
| 300 to 1000 | ≥ 1000 | Cc1cncc(C(=O)Nc2cccc([C@H](C)Nc3cnc4cnn(C5COC5)c4n3)c2)c1 [Compound 179, (S)-5-methyl-N-(3-(1-((1-(oxetan-3-yl)-1H-pyrazolo[3,4-b]pyrazin-6-yl)amino)ethyl)phenyl)nicotinamide] |
| < 300 | 300 to 1000 | CCn1cc2ncc(N[C@@H](C)c3cccc(NC(=O)Nc4cncc(C)c4)c3)nc2n1 [Compound 732, (S)-1-(3-(1-((2-ethyl-2H-pyrazolo[3,4-b]pyrazin-6-yl)amino)ethyl)phenyl)-3-(5-methylpyridin-3-yl)urea] |
| < 300 | ≥ 1000 | CCn1cc2ncc(N[C@@H](C)c3cc(NC(=O)Cc4ccc5c(n4)OCCC5)ccc3C)nc2n1 [Compound 721, (S)-2-(3,4-dihydro-2H-pyrano[2,3-b]pyridin-7-yl)N-(3-(1-((2-ethyl-2H-pyrazolo[3,4-b]pyrazin-6-yl)amino)ethyl)-4-methylphenyl)acetamide] |
| < 300 | 300 to 1000 | CCn1cc2ncc(N[C@@H](C)c3cccc(NC(=O)c4ccc(CN5CCC(F)(F)CC5)c(C)c4)c3)nc2n1 [Compound 476, (S)-4-((4,4-difluoropiperidin-1-yl)methyl)-N-(3-(1-((2-ethyl-2H-pyrazolo[3,4-b]pyrazin-6-yl)amino)ethyl)phenyl)-3-methylbenzamide] |
| < 300 | < 300 | C=Cc1ccc(C(=O)Nc2cccc([C@H](C)Nc3cnc4cnn(C)c4n3)c2)cc1C [Compound 246, (S)-3-methyl-N-(3-(1-((1-methyl-1H-pyrazolo[3,4-b]pyrazin-6-yl)amino)ethyl)phenyl)-4-vinylbenzamide] |
| < 300 | < 300 | CNc1ncc(C(=O)Nc2cccc([C@H](C)Nc3cnc4[nH]cc(-c5cnn(C)c5)c4n3)c2)cc1C [Compound 587, (S)-5-methyl-N-(3-(1-((7-(1-methyl-1H-pyrazol-4-yl)-5H-pyrrolo[2,3-b]pyrazin-2-yl)amino)ethyl)phenyl)-6-(methylamino)nicotinamide] |
| < 300 | < 300 | Cc1ncc(C(=O)Nc2cccc([C@H](C)Nc3cnc4cnn(C)c4n3)c2)cc1F [Compound 250, (S)-5-fluoro-6-methyl-N-(3-(1-((1-methyl-1H-pyrazolo[3,4-b]pyrazin-6-yl)amino)ethyl)phenyl)nicotinamide] |
| < 300 | < 300 | C[C@H](Nc1cnc2cnn(C)c2n1)c1cccc(NC(=O)c2cc(C(C)(C)C)n(C)n2)c1 [Compound 166, (S)-5-(tert-butyl)-1-methyl-N-(3-(1-((1-methyl-1H-pyrazolo[3,4-b]pyrazin-6-yl)amino)ethyl)phenyl)-1H-pyrazole-3-carboxamide] |
| < 300 | < 300 | Cc1cncc(C(=O)Nc2cccc([C@H](C)Nc3cnc4[nH]nc(-c5cnn(C)c5)c4n3)c2)c1 [Compound 551, (S)-5-methyl-N-(3-(1-((3-(1-methyl-1H-pyrazol-4-yl)-1H-pyrazolo[3,4-b]pyrazin-5-yl)amino)ethyl)phenyl) nicotinamide] |
| < 300 | < 300 | CCn1cc2ncc(N[C@@H](C)c3cc(NC(=O)c4ccc(OC(F)F)nc4)ccc3C)nc2n1 [Compound 511, (S)-6-(difluoromethoxy)-N-(3-(1-((2-ethyl-2H-pyrazolo[3,4-b]pyrazin-6-yl)amino)ethyl)-4-methylphenyl)nicotinamide] |
| < 300 | < 300 | Cc1cncc(C(=O)Nc2cccc([C@H](C)Nc3cnc4cc(F)c(F)cc4n3)c2)c1 [Compound 36, (S)-N-(3-(1-((6,7-difluoroquinoxalin-2-yl)amino)ethyl)phenyl)-5-methylnicotinamide] |
| < 300 | < 300 | Cc1cncc(C(=O)Nc2cccc([C@H](C)Nc3cnc4cn[nH]c4n3)c2)c1 [Compound 90, (S)-N-(3-(1-((1H-pyrazolo[3,4-b]pyrazin-6-yl)amino)ethyl)phenyl)-5-methylnicotinamide] |
| < 300 | < 300 | CCn1cc2ncc(N[C@@H](C)c3cc(NC(=O)c4ccc(OC(F)(F)F)nc4)ccc3F)nc2n1 [Compound 303, (S)-N-(3-(1-((2-ethyl-2H-pyrazolo[3,4-b]pyrazin-6-yl)amino)ethyl)-4-fluorophenyl)-6-(trifluoromethoxy)nicotinamide] |
| 300 to 1000 | 300 to 1000 | CCn1cc2ncc(N[C@@H](C)c3cccc(NC(=O)c4cnc(CN5CC6(COC6)C5)c(Cl)c4)c3)nc2n1 [Compound 503, (S)-6-((2-oxa-6-azaspiro[3.3]heptan-6-yl)methyl)-5-chloro-N-(3-(1-((2-ethyl-2H-pyrazolo[3,4-b]pyrazin-6-yl)amino)ethyl)phenyl)nicotinamide] |
| < 300 | 300 to 1000 | CCn1cc2ncc(N[C@@H](C)c3cccc(NC(=O)Cc4cccc(C(F)(F)F)c4)c3)nc2n1 [Compound 630, (S)-N-(3-(1-((2-ethyl-2H-pyrazolo[3,4-b]pyrazin-6-yl)amino)ethyl)phenyl)-2-(3-(trifluoromethyl)phenyl) acetamide] |
| < 300 | < 300 | C[C@H](Nc1cnc2cnn(C)c2n1)c1cccc(NC(=O)c2ccc(OC(F)(F)F)nc2)c1 [Compound 119, (S)-N-(3-(1-((1-methyl-1H-pyrazolo[3,4-b]pyrazin-6-yl)amino)ethyl)phenyl)-6-(trifluoromethoxy)nicotinamide] |
| 300 to 1000 | ≥ 1000 | C[C@H](Nc1cnc2cnn(C)c2n1)c1cccc(NC(=O)C2CC2C(F)(F)F)c1 (stereo partly drawn) [Compound 52, N-(3-((S)-1-((1-methyl-1H-pyrazolo[3,4-b]pyrazin-6-yl)amino)ethyl)phenyl)-2-(trifluoromethyl)cyclopropane-1-carboxamide] |
| < 300 | < 300 | CCn1cc2ncc(N[C@@H](C)c3cccc(NC(=O)c4ccc(CN5CC[C@@H](F)C5)c(Cl)c4)c3)nc2n1 [Compound 464, 3-chloro-N-(3-((S)-1-((2-ethyl-2H-pyrazolo[3,4-b]pyrazin-6-yl)amino)ethyl)phenyl)-4-(((R)-3-fluoropyrrolidin-1-yl)methyl) benzamide] |
| < 300 | ≥ 1000 | Cc1cncc(C(=O)Nc2cccc([C@H](C)Nc3cnc4cnn(C5CCOC5)c4n3)c2)c1 (stereo partly drawn) [Compound 182, 5-methyl-N-(3-((1S)-1-((1-(tetrahydrofuran-3-yl)-1H-pyrazolo[3,4-b]pyrazin-6-yl)amino)ethyl)phenyl) nicotinamide] |
| < 300 | < 300 | Cc1cncc(C(=O)Nc2cccc([C@H](C)Nc3cnc4cc(F)ccc4n3)c2)c1 [Compound 40, (S)-N-(3-(1-((6-fluoroquinoxalin-2-yl)amino)ethyl)phenyl)-5-methylnicotinamide] |
| < 300 | 300 to 1000 | Cc1cncc(C(=O)Nc2cccc([C@H](C)Nc3cnc4cccnc4n3)c2)c1 [Compound 5, (S)-5-methyl-N-(3-(1-(pyrido[2,3-b]pyrazin-3-ylamino)ethyl)phenyl) nicotinamide] |
| < 300 | < 300 | CC(C)c1cc(C(=O)Nc2cccc([C@H](C)Nc3cnc4cnn(C)c4n3)c2)n[nH]1 [Compound 161, (S)-5-isopropyl-N-(3-(1-((1-methyl-1H-pyrazolo[3,4-b]pyrazin-6-yl)amino)ethyl)phenyl)-1H-pyrazole-3-carboxamide] |
| 300 to 1000 | ≥ 1000 | CCn1cc2ncc(N[C@@H](C)c3cccc(NC(=O)c4ccc(N5CCOCC5)nc4)c3)nc2n1 [Compound 372, (S)-N-(3-(1-((2-ethyl-2H-pyrazolo[3,4-b]pyrazin-6-yl)amino)ethyl)phenyl)-6-morpholinonicotinamide] |
| < 300 | < 300 | Cc1cncc(C(=O)Nc2cccc([C@H](C)Nc3cnc4cnn(-c5ccccn5)c4n3)c2)c1 [Compound 272, (S)-5-methyl-N-(3-(1-((1-(pyridin-2-yl)-1H-pyrazolo[3,4-b]pyrazin-6-yl)amino)ethyl)phenyl)nicotinamide] |
| < 300 | < 300 | CCn1cc2ncc(N[C@@H](C)c3cc(NC(=O)c4ccc(NC)nc4)ccc3F)nc2n1 [Compound 337, (S)-N-(3-(1-((2-ethyl-2H-pyrazolo[3,4-b]pyrazin-6-yl)amino)ethyl)-4-fluorophenyl)-6-(methylamino)nicotinamide] |
| < 300 | < 300 | CSc1cc(C(=O)Nc2cccc([C@H](C)Nc3cnc4cnn(C)c4n3)c2)ccc1Cl [Compound 236, (S)-4-chloro-N-(3-(1-((1-methyl-1H-pyrazolo[3,4-b]pyrazin-6-yl)amino)ethyl)phenyl)-3-(methylthio)benzamide] |
| < 300 | < 300 | CCc1ccc(C(=O)Nc2cccc([C@H](C)Nc3cnc4cnn(C)c4n3)c2)cc1C [Compound 251, (S)-4-ethyl-3-methyl-N-(3-(1-((1-methyl-1H-pyrazolo[3,4-b]pyrazin-6-yl)amino)ethyl)phenyl)benzamide] |
